Source: patent US20140081017A1, “Histone Deacetylase Inhibitors for Enhancing Activity of Antifungal Agents” (METHYLGENE INC., priority 2012, published 2014)
Converted amounts (≈) assume the structure as drawn. Like-named read-outs stand apart in the source and are kept apart here.

Legend:
Candida albicans [1] = assay: Minimal Inhibitory Concentration (MIC) assay, broth microdilution per CLSI; type: cell-based; settings: Candida albicans, read-out: Minimum Inhibitory Concentrations against Yeast Isolates, Candida albicans;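 note: two read times 24 hr and 48 hr of incubation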
Method in brief: (§1)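 Following CLSI procedure, compounds dissolved in DMSO on the assay day are diluted twofold and added to MOPS-buffered RPMI at pH 7.0. Saline suspensions of the yeasts, matched to 0.5 McFarland, are diluted 1:100 and inoculated, then plates incubate at 35° C for about 24-48 hr.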

Candida glabrata = assay: as above; type: cell-based; settings: Nakaseomyces glabratus, read-out: Minimum Inhibitory Concentrations against Yeast Isolates, Candida glabrata;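 note: two read times 24 hr and 48 hr of incubation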
Method in brief: as §1

Candida parapsilosis [2] = assay: as above; type: cell-based; settings: Lodderomyces parapsilosis, read-out: Minimum Inhibitory Concentrations against Yeast Isolates, Candida parapsilosis
Method in brief: as §1

Candida parapsilosis [3] = settings: range not explained, cited from earlier work
C. glabrata [4] = assay: Checkerboard FIC assay in combination with fluconazole (MIC alone and in combination, FICI); type: cell-based, Candida glabrata; settings: for MIC: Nakaseomyces glabratus; for FICI of combination resulting in fluconazole MIC of: 2 ug/mL / FICI of combination resulting in fluconazole MIC of: 4 ug/mL / FICI of combination resulting in fluconazole MIC of: 8 ug/mL: FICI calculated using a fluconazole MIC of 16 μg/mL; for FICI of combination resulting in fluconazole MIC of: 2 ug/mL (value in parenthesis) / FICI of combination resulting in fluconazole MIC of: 4 ug/mL (value in parenthesis) / FICI of combination resulting in fluconazole MIC of: 8 ug/mL (value in parenthesis): FICI using a fluconazole MIC of 128 μg/mL; for Concentration of Methylgene compound to synergize fluconazole MIC to 2 ug/mL / Concentration of Methylgene compound to synergize fluconazole MIC to 4 ug/mL / Concentration of Methylgene compound to synergize fluconazole MIC to 8 ug/mL: in combination with fluconazole; for Concentration of Methylgene compound to synergize fluconazole MIC to 2 ug/mL: fluconazole MIC lowered to 2 ug/mL; for Concentration of Methylgene compound to synergize fluconazole MIC to 4 ug/mL: fluconazole MIC lowered to 4 ug/mL; for Concentration of Methylgene compound to synergize fluconazole MIC to 8 ug/mL: fluconazole MIC lowered to 8 ug/mL
Method in brief: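 C. glabrata was tested by CLSI broth microdilution checkerboard, crossing 2-fold dilutions of compound with 2-fold dilutions of fluconazole. The medium was RPMI with 0.165 M MOPS at pH 7.0, inoculated from a 0.5 McFarland suspension diluted 1:100, then incubated about 48 h at 35 °C. Single-agent MICs gave the FIC and FICI values.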

Candida albicans [5] = settings: 48 hr; range not explained; cited from earlier work
C. glabrata [6] = settings: based on a prior study / previously observed; cited from earlier work
[7] = 24 hr reading (first value of cell 24 hr/48 hr)
[8] = 48 hr reading (second value of cell 24 hr/48 hr)
[9] = MIC of the example compound alone against C. glabrata in the checkerboard assay, approximately 48 hr, read-out: Methylgene MIC
[10] = test compound alone, C. glabrata, approx. 48 hr at 35° C., read-out: Compound MIC
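Throughout, for Minimum Inhibitory Concentrations against Yeast Isolates, Candida parapsilosis: two read times 24 hr and 48 hr of incubation.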

MIC (Candida albicans [1]; [7]) [µg/mL] | MIC (Candida albicans [1]; [8]) [µg/mL] | MIC (Candida glabrata; [7]) [µg/mL] | MIC (Candida glabrata; [8]) [µg/mL] | MIC (Candida parapsilosis [2]; [7]) [µg/mL] | MIC (Candida parapsilosis [2]; [8]) [µg/mL] | FICI of combination resulting in fluconazole MIC of: 2 ug/mL (C. glabrata [4]; C. glabrata) | FICI of combination resulting in fluconazole MIC of: 4 ug/mL (C. glabrata [4]; C. glabrata) | FICI of combination resulting in fluconazole MIC of: 8 ug/mL (C. glabrata [4]; C. glabrata) | FICI of combination resulting in fluconazole MIC of: 2 ug/mL (value in parenthesis) (C. glabrata [4]; C. glabrata) | FICI of combination resulting in fluconazole MIC of: 4 ug/mL (value in parenthesis) (C. glabrata [4]; C. glabrata) | FICI of combination resulting in fluconazole MIC of: 8 ug/mL (value in parenthesis) (C. glabrata [4]; C. glabrata) | MIC (C. glabrata [4]; [9]) [µg/mL] | MIC (C. glabrata [4]; [10]) [µg/mL] | Concentration of Methylgene compound to synergize fluconazole MIC to 2 ug/mL (C. glabrata [4]; C. glabrata) [µg/mL] | Concentration of Methylgene compound to synergize fluconazole MIC to 4 ug/mL (C. glabrata [4]; C. glabrata) [µg/mL] | Concentration of Methylgene compound to synergize fluconazole MIC to 8 ug/mL (C. glabrata [4]; C. glabrata) [µg/mL] | SMILES | MIC range in parentheses below the comparator's MIC, Candida parapsilosis (Candida parapsilosis [3]; 24 hr) [µg/mL] | further results
0.06 (≈ 0.0549 µM) | 0.06 (≈ 0.0549 µM) | 0.12 (≈ 0.11 µM) | 0.12 (≈ 0.11 µM) | 0.5 (≈ 0.457 µM) | 0.5 (≈ 0.457 µM) | – | – | – | – | – | – | – | – | – | – | – | CC[C@H](C)C[C@H](C)CCCCCCCCC(=O)N[C@H]1C[C@@H](O)[C@@H](NCCN)NC(=O)[C@@H]2[C@@H](O)CCN2C(=O)[C@H]([C@H](O)CCN)NC(=O)[C@H]([C@H](O)[C@@H](O)c2ccc(O)cc2)NC(=O)[C@@H]2C[C@@H](O)CN2C(=O)[C@H]([C@@H](C)O)NC1=O [Caspofungin, reference compound] | 0.25 to 1 | –
0.25 (≈ 0.816 µM) | 1 (≈ 3.27 µM) | 4 (≈ 13.1 µM) | 8 (≈ 26.1 µM) | 2 (≈ 6.53 µM) | 4 (≈ 13.1 µM) | – | – | – | – | – | – | – | – | – | – | – | OC(Cn1cncn1)(Cn1cncn1)c1ccc(F)cc1F [Fluconazole, reference compound] | 0.5 to 4 | MIC (C. glabrata [4]; C. glabrata, this study, checkerboard assay, read-out: MIC of fluconazole alone against both test isolates): > 8 µg/mL; MIC range in parentheses below the comparator's MIC, Candida albicans (Candida albicans [5]): (NA/0.25-1) ug/mL; MIC range in parentheses below the comparator's MIC, Candida parapsilosis (Candida parapsilosis [3]; 48 hr): 1 to 4 µg/mL; MIC of fluconazole alone against both test isolates (C. glabrata [6]): > 64 µg/mL
> 8 | > 8 | 8 (≈ 19 µM) | > 8 | > 8 | > 8 | 0.313 | 0.250 | 0.375 | 0.266 | 0.156 | 0.188 | > 8 | > 8 | 4 | 2 | 2 | Cn1cnc(CNC(=O)c2ccc(CCCCc3ccc(CC(=O)NO)cc3)cc2)c1 [Example 23, 4-(4-(4-(2-(hydroxyamino)-2-oxoethyl)phenyl)butyl)-N-((1-methyl-1H-imidazol-4-yl)methyl)benzamide] | – | –
64 (≈ 220 µM) | 64 (≈ 220 µM) | > 64 | > 64 | 64 (≈ 220 µM) | 64 (≈ 220 µM) | 0.375 | 0.500 | 0.625 | 0.266 | 0.281 | 0.188 | 16 | 16 | 4 | 4 | 2 | O=C(Cc1cnc(CCCCc2ccccc2)s1)NO [Example 2, N-hydroxy-2-(2-(4-phenylbutyl)thiazol-5-yl)acetamide] | – | Multiple of compound MIC to synergize fluconazole MIC to 2 ug/mL (C. glabrata [4]; concentration in combination as multiple of the compound's MIC alone, fluconazole MIC 2 ug/mL): (¼x); Multiple of compound MIC to synergize fluconazole MIC to 4 ug/mL (C. glabrata [4]; concentration in combination as multiple of the compound's MIC alone, fluconazole MIC 4 ug/mL): (¼x); Multiple of compound MIC to synergize fluconazole MIC to 8 ug/mL (C. glabrata [4]; concentration in combination as multiple of the compound's MIC alone, fluconazole MIC 8 ug/mL): (⅛x)
